Here are results for eleven molecules from PubChem BioAssay (NCI).

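Briefly, cells in 96-well plates were exposed to five compound concentrations for 48 h, and endpoints were estimated by linear interpolation. TGI: total growth inhibition.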

What all share (assay): DTP human tumour cell line panel, 48 h
Test [1] concerns UACC-257 melanoma.
Test [2] has as its system CAKI-1 renal.
Test [3] relates to HL-60(TB) leukemia.
Test [4] concerns BT-549 breast.
For test [5], the system named is KM12 colon.
Test [6] relates to OVCAR-5 ovarian.
Test [7] concerns SK-MEL-5 melanoma.
The test system of test [8] is NCI/ADR-RES ovarian.
Test [9] relates to 786-0 renal.
The test system of test [10] is NCI-H522 lung.

The term TGI denotes the concentration at which net growth stops. A lower TGI goes with more potent growth arrest. As for `COC(=O)/C=C(/C(=O)OC)c1c(C)c(C)c2c(C)cc(C)cc(C)c1-2`, the TGI in [1], in test [2], in test [3], in test [4], in test [5] and in [6] was above 100 µM each time. Further, the total growth inhibition concentration (TGI) in [7] was above 100 µM; in test [8], above 100 µM; in [9], above 100 µM; in test [10] it was 52.3 µM.
On to `COC(=O)/C=C1\CCC(C)(C(=O)NS(=O)(=O)c2ccc(C)cc2)C1(C)C` (stereo not given), for which the TGI in [1], in test [2], in [3], in [4], in [5] and in [6] was above 100 µM each time. Also, the total growth inhibition concentration (TGI) in [7], in test [8], in test [9] and in test [10] was above 100 µM throughout.
For the molecule `CCOc1nc(-c2ccccc2)cc(-c2ccc(N3CCOCC3)cc2)c1C#N`, the TGI in test [1], in test [2], in test [3], in test [4], in test [5] and in test [6] was above 100 µM in each case. For the same molecule, the TGI in test [7], in test [8], in test [9] and in test [10] was above 100 µM in each case.
As to `CC(C)c1ccc(/C=C2\CSCC3=C2NC(=S)NC3c2ccc(C(C)C)cc2)cc1` (stereo not given), the TGI in test [1], in test [2], in test [3], in test [4], in [5] and in [6] was above 100 µM in each case. Further, the concentration for total growth inhibition (TGI) in test [7] was 99.5 µM; in test [8] it was above 100 µM; in test [9] it was above 100 µM; in test [10], above 100 µM.
Regarding `O=S1(=O)c2ccccc2C(=NO)c2ccccc21`, the TGI was above 100 µM in test [1]; above 100 µM in test [2]; 36.2 µM in test [3]; above 100 µM in [4]; above 100 µM in [5]; above 100 µM in test [6]. Also, the concentration for total growth inhibition (TGI) in [7], in test [8], in test [9] and in test [10] was above 100 µM each time.
Take `Nc1ccccc1N/C=C\C(=O)C(Cl)(Cl)Cl`: the TGI was found to be 64.2 µM in test [1]; 51.3 µM in [2]; 85.3 µM in test [3]; 58.6 µM in [4]; 29.4 µM in test [5]; 45.6 µM in test [6]. For the same molecule, the TGI in test [7] is above 100 µM; in [8] it was above 100 µM; in [9], 28.3 µM; in test [10], above 100 µM.
Regarding `NC(=S)Nc1[nH]c(=S)nc2c1SC1=N/C(=C\c3ccco3)C(=O)N12`, the TGI was above 100 µM in [1]; above 100 µM in [2]; 46.8 µM in test [3]; above 100 µM in [4]; above 100 µM in test [5]; above 100 µM in [6]. The concentration for total growth inhibition (TGI) in [7], in test [8], in [9] and in [10] was above 100 µM in each case.
Take `COc1cc(CC2c3cc(OC)c(OC)cc3CCN2C)c(Oc2cc3c(cc2OC)-c2c(O)c(OC)cc4c2C(C3)N(C)CC4)cc1OC` (stereo not given): the total growth inhibition concentration (TGI) in [1] is 37.4 µM; in test [2], 68.4 µM; in test [3], 17.9 µM; in test [4], 32.4 µM; in test [5], 31.3 µM; in test [6], above 100 µM. For the same molecule, the TGI in test [7] is 32.8 µM; in [8] it was 43.9 µM; in test [9] it was 84.4 µM; in test [10], 39.3 µM.
Consider `O=c1c2cc(I)ccc2nc(Sc2ncccc2[N+](=O)[O-])n1Cc1ccccc1`, for which the concentration for total growth inhibition (TGI) in [1] is above 100 µM; in [2], above 100 µM; in [3], 2.02 µM; in test [4], 64 µM; in test [5], above 100 µM; in test [6] it was above 100 µM. For the same molecule, the TGI in [7] is 91.6 µM; in test [8], above 100 µM; in test [9], above 100 µM; in test [10], 78 µM.
In the case of `Cc1sc(/N=C/c2c[nH]c3ccccc23)c(C#N)c1C`, the TGI in test [1], in test [2], in [3], in test [4], in [5] and in test [6] was above 100 µM in each case. Also, the total growth inhibition concentration (TGI) is 53.2 µM in [7], above 100 µM in [8], above 100 µM in test [9] and above 100 µM in [10].
`C=CCNC(=O)NC1=CSC2=NC(=O)C3(NN12)c1ccccc1-c1ccccc13`: the concentration for total growth inhibition (TGI) in test [1], in [2], in test [3], in test [4], in [5] and in test [6] was above 10 µM each time. The TGI in test [7], in [8], in test [9] and in [10] was above 10 µM each time.
